Values of other authors in patent US10722545B2, “Compound and method for treatment of movement disorders” (priority 2018, dated 2020).

How the values were obtained:
[1] = test system: rat cortical neuron cultures; conditions: for glutamate toxicity: isolated or synthetic cannabinoid; for NMDA, AMPA and kainate receptor mediated neurotoxicity: rat cortical neuron cultures, not affected by CB receptor antagonist
mice = conditions: oral administration
[2] = cyclic voltammetry and fenton reaction-based system
[3] = test system: mutant hamster model of dystonia
neurons = conditions: neuronal cultures

Structure (SMILES) | glutamate toxicity [1] | NMDA, AMPA and kainate receptor mediated neurotoxicity [1] | inhibition of phenyl-p-benzoquinone-induced writhing (mice) | antioxidant activity [2] | antidystonic effects [3] | protective capacity against glutamate toxicity, head to head with other antioxidants ([1]; compared with alpha-tocopherol and ascorbate) | hydroperoxide toxicity in neurons (neurons)
CCCCCc1cc(O)c2c(c1)OC(C)(C)[C@@H]1CCC(C)=C[C@@H]21 (relative stereo) [THC, (-)-Δ9-trans-tetrahydrocannabinol] | prevented to some extent | reduced | least effective | potent antioxidants | – | – | –
Cc1c(C(=O)c2cccc3ccccc23)c2cccc3c2n1[C@H](CN1CCOCC1)CO3 [WIN55,212-2] | – | – | – | – | produces antidystonic effects | – | –
CCCCCc1cc(O)c2c(c1)OC(C)(C)c1ccc(C)cc1-2 [CBN, cannabinol] | – | – | least effective | – | – | – | –
C=C(C)[C@@H]1CCC(C)=C[C@H]1c1c(O)cc(CCCCC)cc1O [CBD, cannabidiol] | prevented to some extent | reduced | most effective | potent antioxidants | – | superior to both alpha-tocopherol and ascorbate | reduce hydroperoxide toxicity
